Here are results for 10 compounds from paper PMC9112895, “Selective Inhibition of Plasmodium falciparum ATPase 6 by Artemisinins and Identification of New Classes of Inhibitors after Expression in Yeast” (Antimicrobial Agents and Chemotherapy, 2022).

Marks after values point to notes of the source that are not given here.

The target of experiment [1] is T1, PfATP6 (Plasmodium falciparum, UniProt Q08853). The experiment is described as follows: Yeast whole-cell growth inhibition (functional rescue) assay, K667[PfATP6]. Also noted: pUGpd containing the yeast-optimized coding region of PfATP6 from Plasmodium falciparum; expressed in transfected cells; host or cells: Saccharomyces cerevisiae K667 and K667Δpdr5::HIS. Type of experiment: cell-based. As to the method:
(§1) The screening assay used here was developed from the protocol used by Pulcini et al. ([13]). A single colony of the yeast strain to be screened was picked and grown in 5 mL of selective medium until stationary phase was reached. The culture was diluted 100-fold in ampicillin-supplemented yeast extract-peptone-dextrose (YPD) medium to an OD at 620 nm (OD620) equivalent to that of lag phase. YPD medium was supplemented with an appropriate concentration of calcium, depending on the transformed strain. […] The optimal calcium concentration was periodically monitored and, if necessary, adjusted using a calcium concentration range of 10 to 30 mM. A final volume of 200 μL of the yeast culture was added to each well of a 96-well plate, with 5 technical replicates included per inhibitor. All inhibitors were dissolved in dimethyl sulfoxide (DMSO) unless otherwise stated. […] The 96-well plates were incubated at 30°C for 42 h. The yeast growth was estimated from the absorbance at 620 nm in a Tecan plate reader. Growth was normalized with the no-drug control to present data as percent growth. The data collected were analyzed using GraphPad Prism v9.0 (GraphPad software, San Diego, CA, U.S.A).

The target in experiment [2] is T1, PfATP6. The experiment is described as follows: cell-based. Type of experiment: cell-based. More on the design: pUGpd containing the yeast-optimized coding region of PfATP6 from Plasmodium falciparum; expressed in transfected cells; host or cells: Saccharomyces cerevisiae K667 and K667Δpdr5::HIS. The conditions noted are these: for Fold difference: IC50 K667[PfATP6] versus K667Δpdr5[PfATP6]; for inhibition of PfATP6 in compound screen: growth inhibition, K667Δpdr5[PfATP6]. As for the experimental part:
as §1

The test system of experiment [3] is cytosolic Ca2+ concentration in parasites. Put plainly: Parasite calcium homeostasis (YC-Nano biosensor, flow cytometry). Type of experiment: cell-based, Plasmodium falciparum. The settings on record: 25 μM, YC-Nano-expressing parasites. As for the experimental part: Three biological replicates were carried out, after an initial blinded experiment.
For orientation: Flow cytometry measures light scatter and fluorescence of single cells or particles in a stream.

The target of experiment [4] is T1, PfATP6. Put plainly: DHA-biotin labeling / pulldown, Western blot and mass spectrometry. Type of experiment: binding. More on the design: pUGpd containing the yeast-optimized coding region of PfATP6 from Plasmodium falciparum; expressed in transfected cells; host or cells: Saccharomyces cerevisiae K667 and K667Δpdr5::HIS. As for the experimental part: Both whole yeast and microsomes were prepared for mass spectrometric analysis by addition of 500 nM biotin-tagged DHA probe to 200 μL (∼0.6 mg protein) of yeast microsome preparation or 10 μM probe to 50 to 100 mL yeast culture at an OD620 of 1.0 to 1.5 (∼35 to 70 mg total protein) and incubation for 4 h at 30°C. For competition studies, 25× artesunate was added and incubated for 30 min before addition of the probe and incubation for 4 h at 30°C. Samples were then acetone precipitated by adding 4 volumes of −20°C acetone/water (4:1) to the yeast pellet or microsomal pellet and incubating the mixture for 2 h to overnight at −20°C. The samples were then pelleted at 13,000 to 16,000 × g for 10 min at 0°C to 4°C and washed twice with −20°C acetone/water solution. After a final centrifugation, pellets were dried in a freeze-drier for 1 h. Subsequent pulldowns and liquid chromatography-tandem mass spectrometry were performed as described by Wang et al. ([18]).
A 0.3-mg aliquot of PfATP6-enriched membrane vesicles, as well as an aliquot of SERCA1a and vector-only membrane vesicles, were thawed on ice. One-half of each aliquot (0.15 mg) was preincubated with 12.5 μM artesunate at 30°C for 30 min. Then, all samples had 500 nM DHA-biotin probe added (NewChem Technologies) and were incubated at 30°C for 4 h. […] Blots were analyzed using the Odyssey scanner system. […]
(Immunoblotting shows a protein as a band on a membrane.)

A further experiment has as its system Plasmodium falciparum. Put plainly: In vitro parasite assay ([3H]hypoxanthine uptake). Type of experiment: cell-based. The conditions noted are these: parasites in vitro, read-out: antiparasitic potency IC50. As to the method:
Inhibitor IC50s were calculated in parasite assays following the protocol described by Desjardins et al. ([52]). Briefly, cultures were synchronized to ring stage by D-sorbitol lysis, using a 5% D-sorbitol solution. The parasites were diluted to a final parasitemia of 1%. Hypoxanthine-free medium was added to give a hematocrit level of 4%. A 2-fold dilution series of the inhibitors in hypoxanthine-free medium was prepared, and 100 μL of each inhibitor concentration was seeded in a 96-well plate, with 5 technical replicates of each included. Two no-inhibitor controls, i.e., hypoxanthine-free medium only, were included. Plates were incubated at 37°C in 5% CO2 for 24 h. After 24 h, [^3H]hypoxanthine was added to each well to a final concentration of 0.5 μCi/well, and the plates were incubated for a further 24 h. Plates were then freeze-thawed to lyse the cells, and the [^3H]hypoxanthine uptake was measured in a Beckman scintillation counter.

Experiment [5] has as its target T1, PfATP6. Put plainly: In vitro activity assay, PfATP6 (membrane-bound). Type of experiment: biochemical. More on the design: pUGpd containing the yeast-optimized coding region of PfATP6 from Plasmodium falciparum; expressed in transfected cells. The settings on record: 1 μM free calcium. As for the experimental part: Activity assays were performed as described by Longland et al. ([55]) and LeBel et al. ([56]), except that the reaction mixtures were incubated at 30°C instead of 37°C. […] Then, 5.8 mM ATP was added and incubated for an additional 15 min at 30°C. The reaction was stopped with 0.5 mL 6.5% trichloroacetic acid (TCA) on ice, and the mixture was centrifuged at 4°C for 10 min at 16,000 × g; 0.5 mL of the supernatant was added to 1.5 mL of copper acetate buffer (0.25% copper sulfate pentahydrate, 4.6% sodium acetate trihydrate, dissolved in 2 M acetic acid [pH 4.0]) and mixed by vortex-mixing before the addition of 0.25 mL of 5% ammonium molybdate, followed by 0.25 mL METOL buffer (2% p-methyl-aminophenol sulfate, 5% sodium sulfite). Samples were incubated for 10 min, and the absorbance was measured at 870 nm in a spectrophotometer. The Pi standard was 0.4387 g/100 mL KH2PO4.

T1 sequence (Q08853 whole entry): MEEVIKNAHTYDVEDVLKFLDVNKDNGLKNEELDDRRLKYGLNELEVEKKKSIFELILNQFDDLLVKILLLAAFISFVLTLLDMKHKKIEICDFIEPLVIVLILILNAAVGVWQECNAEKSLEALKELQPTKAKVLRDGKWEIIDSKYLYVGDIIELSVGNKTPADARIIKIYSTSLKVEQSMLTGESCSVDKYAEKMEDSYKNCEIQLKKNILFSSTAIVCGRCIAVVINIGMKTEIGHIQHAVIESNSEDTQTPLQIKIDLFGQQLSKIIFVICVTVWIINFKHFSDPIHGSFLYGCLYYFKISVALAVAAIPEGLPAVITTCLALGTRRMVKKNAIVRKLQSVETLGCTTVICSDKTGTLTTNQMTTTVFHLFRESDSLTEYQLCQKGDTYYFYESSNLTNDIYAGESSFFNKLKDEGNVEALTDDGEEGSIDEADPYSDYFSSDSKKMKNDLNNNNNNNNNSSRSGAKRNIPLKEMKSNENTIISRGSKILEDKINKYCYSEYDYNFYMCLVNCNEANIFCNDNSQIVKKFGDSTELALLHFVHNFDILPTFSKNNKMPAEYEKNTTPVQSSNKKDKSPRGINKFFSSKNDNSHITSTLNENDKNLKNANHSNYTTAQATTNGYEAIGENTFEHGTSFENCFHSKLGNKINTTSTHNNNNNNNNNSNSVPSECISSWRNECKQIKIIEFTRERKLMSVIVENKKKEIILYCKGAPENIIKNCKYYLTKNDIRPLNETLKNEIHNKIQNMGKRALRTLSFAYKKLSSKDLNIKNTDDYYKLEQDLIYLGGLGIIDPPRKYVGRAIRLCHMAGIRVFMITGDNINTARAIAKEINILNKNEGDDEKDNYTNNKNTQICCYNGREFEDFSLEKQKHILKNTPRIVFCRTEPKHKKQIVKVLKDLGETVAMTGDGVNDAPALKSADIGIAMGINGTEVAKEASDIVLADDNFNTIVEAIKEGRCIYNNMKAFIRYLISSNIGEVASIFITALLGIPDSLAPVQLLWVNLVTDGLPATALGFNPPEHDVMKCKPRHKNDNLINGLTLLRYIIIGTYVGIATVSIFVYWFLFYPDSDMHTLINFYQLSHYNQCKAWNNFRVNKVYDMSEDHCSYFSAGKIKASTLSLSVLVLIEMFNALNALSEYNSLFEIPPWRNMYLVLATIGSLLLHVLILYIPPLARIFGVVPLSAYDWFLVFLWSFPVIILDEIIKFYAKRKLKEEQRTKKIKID

The term IC50 denotes the concentration at which inhibition is half-maximal. One may read the IC80 as the concentration at which the effect reaches the 80% level. At PfATP6 [1], `CO[C@H]1O[C@@H]2O[C@@]3(C)CC[C@H]4[C@H](C)CC[C@@H]([C@H]1C)[C@@]24OO3` [Artemether] displayed a half-inhibitory concentration (IC50) of 15.7 µM. In addition, at PfATP6 [2], the IC50 amounted to 3.4 µM and the Fold difference is given as 5^e. Further, the “approximate IC10” value on PfATP6 [2] (fitness cost assays, drug pressure) is approximately 1 µM. Moreover, at PfATP6 [2] (read-out: approximate yeast IC80), the IC80 is approximately 1 µM.

On to `C[C@@H]1CC[C@H]2[C@@H](C)C(=O)O[C@@H]3O[C@@]4(C)CC[C@@H]1[C@]32OO4` [Artemisinin], for which the 50% inhibitory concentration (IC50) at PfATP6 [1] amounted to 10.6 µM; at PfATP6 [2], 1.8 µM.

In the case of `C[C@H]1[C@H](N2CCS(=O)(=O)CC2)O[C@@H]2O[C@@]3(C)CC[C@H]4[C@H](C)CC[C@@H]1[C@@]24OO3` [Artemisone], the “change in cytosolic Ca2+ concentration” value in experiment [3] is “significantly increased”; in experiment [3] (listed as artemisone), “sustained elevation”. Besides, the half-inhibitory concentration (IC50) against PfATP6 [1] stood at 3.6 µM; against PfATP6 [2], 0.9 µM. Moreover, the Fold difference on PfATP6 [2] is 4^c.

Consider `C[C@H]1[C@H](OC(=O)CCC(=O)O)O[C@@H]2O[C@@]3(C)CC[C@H]4[C@H](C)CC[C@@H]1[C@@]24OO3` [Artesunate], for which, at PfATP6 [1], half-maximal inhibition (IC50) was put at 14.8 µM. Also, on PfATP6 [2], the midpoint of inhibition, the IC50, lay at 3.7 µM and the Fold difference was 4^d. At PfATP6 [4] (preincubation with excess artesunate), the “competition with tagged DHA for PfATP6” value is given as “competed with the tagged DHA”.

On to `C[C@H]1[C@@H](O)O[C@@H]2O[C@@]3(C)CC[C@H]4[C@H](C)CC[C@@H]1[C@@]24OO3` [DHA, dihydroartemisinin], for which the IC50 is 0.0025 µM in the experiment on Plasmodium falciparum, 23.8 µM against PfATP6 [1] and 2.1 µM against PfATP6 [2]. The “in vitro activity of PfATP6 versus no drug control” value on PfATP6 [5] was “No significant”. The Fold difference at PfATP6 [2] is 11^c.

Turning to `Oc1ccc(O)cc1` [benzohydroquinone], at PfATP6 [2], the “inhibition of PfATP6 in compound screen” value was “limited success”.

Take `CC1CCC2C(C)C(OC(=O)CCOCCOCCOCCOCCNC(=O)CCCCC3SCC4NC(=O)NC43)OC3OC4(C)CCC1C32OO4` (stereo not drawn) [biotin-derivatized DHA]: the concentration for half-maximal inhibition (IC50) in the experiment with Plasmodium falciparum is 0.005 µM. Moreover, the “alkylation/labeling of PfATP6” value at PfATP6 [4] (membrane extracts and whole yeast, K667[PfATP6], mass spectrometry) was “alkylated”.

For `C[C@@H]1CC[C@H]2[C@@H](C)C(=O)O[C@@H]3O[C@@]4(C)CC[C@@H]1[C@]32O4` [deoxyartemisinin], the “in vitro activity of PfATP6 versus no drug control” value on PfATP6 [5] is recorded as “No significant”.

With `Cc1cc(O)c2c(=O)c3c(O)cc(O)c4c5c(O)cc(O)c6c(=O)c7c(O)cc(C)c8c1c2c(c34)c(c78)c65` [hypericin], at PfATP6 [2], the “inhibition of PfATP6 in compound screen” value is “limited success”.

As to `C[C@H]1O[C@@H](O[C@H]2CC[C@@]3(C)[C@@H](CC[C@]4(C)[C@@H]3C=C[C@]35OC[C@@]6(CCC(C)(C)C[C@H]63)[C@H](O)C[C@]54C)[C@]2(C)CO)[C@H](O)[C@@H](O[C@@H]2O[C@H](CO)[C@@H](O)[C@H](O)[C@H]2O)[C@H]1O` [saikosaponin, Saikosaponin D], the “concentration at which PfATP6 was inhibited” value on PfATP6 [2] (inhibited only at high concentrations) is more than 100 µM.
